Laboratory results published in patent publication US20210015752A1, “METHODS FOR PRODUCING PARTICLES OF AN ACTIVE INGREDIENT” (Savior Lifetec Corporation, priority 2017, published 2021).

What was measured:
Type in all cases: physicochemical
[1] = Emulsion test of L-ascorbic acid in various types of solvents; conditions: stirred 3 hr
Excerpt: Two combinations of solvents gave emulsified solutions, there were tetrahydrofuran/heptanes and methanol/water

[2] = Solubility test of paliperidone palmitate in various types of solvents; conditions: ratio 1/15 (v/w), 30° C., stirred about 0.5 hour
Procedure: The solubility of paliperidone palmitate in various types of solvents was evaluated. To this purpose, paliperidone palmitate and the designated solvent were mixed in a ratio of 1/15 (v/w) at 30° C. and the mixture was stirred for about 0.5 hour.

[3] = Emulsion test of paliperidone palmitate in various types of solvents; conditions: stirred 3 hr
Procedure: Paliperidone palmitate was dissolved in DCM, THF, or toluene at 30° C. and stirred for about 0.5 hour to form a first solution, then a second solvent (as indicated in Table 2) was added and stirred for 3 hr. As the data in Table 2 indicated, among the 36 combinations (i.e., the combination of one of the 3 first solutions and one of the second solvents), only three combinations gave satisfied emulsified solutions, which comprised particles of paliperidone palmitate. The 3 combinations were THF/water, toluene/heptanes, and toluene/hexane, respectively.

For `O=C1O[C@H]([C@@H](O)CO)C(O)=C1O` [L-ascorbic acid], the “Emulsion test result of the first solution containing L-ascorbic acid with the second solvent” value ([1]; first solvent methanol, second solvent water) was “emulsified” and the “Emulsion test result of the first solution containing L-ascorbic acid with the second solvent” value ([1]; first solvent tetrahydrofuran, second solvent heptanes) was “emulsified”.

For `CCCCCCCCCCCCCCCC(=O)OC1CCCn2c1nc(C)c(CCN1CCC(c3noc4cc(F)ccc34)CC1)c2=O` (centres unmarked) [paliperidone palmitate], the “Solubility of paliperidone palmitate” value ([2]; solvent ACN) was “insoluble”, the “Solubility of paliperidone palmitate” value ([2]; solvent Acetone) was “insoluble” and the “Solubility of paliperidone palmitate” value ([2]; solvent DCM) was “soluble”. The “Solubility of paliperidone palmitate” value ([2]; solvent EtOAc) was “insoluble”, the “Solubility of paliperidone palmitate” value ([2]; solvent EtOH) was “insoluble” and the “Solubility of paliperidone palmitate” value ([2]; solvent Heptanes) was “insoluble”. For the same molecule, the “Solubility of paliperidone palmitate” value ([2]; solvent Hexane) was “insoluble”, the “Solubility of paliperidone palmitate” value ([2]; solvent IPA) was “insoluble” and the “Solubility of paliperidone palmitate” value ([2]; solvent MTBE) was “insoluble”. For the same molecule, the “Solubility of paliperidone palmitate” value ([2]; solvent THF) was “soluble”, the “Solubility of paliperidone palmitate” value ([2]; solvent Toluene) was “soluble” and the “Solubility of paliperidone palmitate” value ([2]; solvent Water) was “insoluble”. The “Solubility of the second solvent in the first solution containing paliperidone palmitate” value (from here on “Solubility of the second solvent”) ([3]; first solvent DCM, second solvent ACN) was “miscible”, the “Solubility of the second solvent” value ([3]; first solvent DCM, second solvent Acetone) was “miscible” and the “Solubility of the second solvent” value ([3]; first solvent DCM, second solvent EtOAc) was “miscible”. For the same molecule, the “Solubility of the second solvent” value ([3]; first solvent DCM, second solvent EtOH) was “miscible”, the “Solubility of the second solvent” value ([3]; first solvent DCM, second solvent Heptanes) was “miscible” and the “Solubility of the second solvent” value ([3]; first solvent DCM, second solvent Hexane) was “miscible”. The “Solubility of the second solvent” value ([3]; first solvent DCM, second solvent IPA) was “miscible”, the “Solubility of the second solvent” value ([3]; first solvent DCM, second solvent MTBE) was “miscible” and the “Solubility of the second solvent” value ([3]; first solvent DCM, second solvent THF) was “miscible”. The “Solubility of the second solvent” value ([3]; first solvent DCM, second solvent Toluene) was “miscible”, the “Solubility of the second solvent” value ([3]; first solvent DCM, second solvent Water) was “layered” and the “Solubility of the second solvent” value ([3]; first solvent THF, second solvent ACN) was “miscible”. For the same molecule, the “Solubility of the second solvent” value ([3]; first solvent THF, second solvent Acetone) was “miscible”, the “Solubility of the second solvent” value ([3]; first solvent THF, second solvent DCM) was “miscible” and the “Solubility of the second solvent” value ([3]; first solvent THF, second solvent EtOAc) was “miscible”. The “Solubility of the second solvent” value ([3]; first solvent THF, second solvent EtOH) was “miscible”, the “Solubility of the second solvent” value ([3]; first solvent THF, second solvent Heptanes) was “miscible” and the “Solubility of the second solvent” value ([3]; first solvent THF, second solvent Hexane) was “miscible”. For the same molecule, the “Solubility of the second solvent” value ([3]; first solvent THF, second solvent IPA) was “miscible”, the “Solubility of the second solvent” value ([3]; first solvent THF, second solvent MTBE) was “miscible” and the “Solubility of the second solvent” value ([3]; first solvent THF, second solvent Toluene) was “miscible”. For the same molecule, the “Solubility of the second solvent” value ([3]; first solvent THF, second solvent Water) was “emulsified”, the “Solubility of the second solvent” value ([3]; first solvent Toluene, second solvent ACN) was “miscible” and the “Solubility of the second solvent” value ([3]; first solvent Toluene, second solvent Acetone) was “miscible”. For the same molecule, the “Solubility of the second solvent” value ([3]; first solvent Toluene, second solvent DCM) was “miscible”, the “Solubility of the second solvent” value ([3]; first solvent Toluene, second solvent EtOAc) was “miscible” and the “Solubility of the second solvent” value ([3]; first solvent Toluene, second solvent EtOH) was “miscible”. The “Solubility of the second solvent” value ([3]; first solvent Toluene, second solvent Heptanes) was “emulsified”, the “Solubility of the second solvent” value ([3]; first solvent Toluene, second solvent Hexane) was “emulsified” and the “Solubility of the second solvent” value ([3]; first solvent Toluene, second solvent IPA) was “miscible”. For the same molecule, the “Solubility of the second solvent” value ([3]; first solvent Toluene, second solvent MTBE) was “miscible”, the “Solubility of the second solvent” value ([3]; first solvent Toluene, second solvent THF) was “miscible” and the “Solubility of the second solvent” value ([3]; first solvent Toluene, second solvent Water) was “layered”.
